This is an account of results in patent publication EP4782453A1 (Beyang Therapeutics Co., Ltd., priority 2023, dated 2025).

In assay [1] the test system is MV-4-11 (carrying MLL-AF4). Nature of the assay: Inhibition of proliferation of human tumor cells (Alamar Blue, 7 days), MV-4-11. As to conditions: MV-4-11 cells (carrying MLL-AF4), method calls the value GI50. It counts as cell-based. From the text: Experimental Example 2: Evaluation of Inhibitory Activity of Compounds Against Proliferation of Human Tumor Cells
• Human acute lymphoblastic leukemia cells MV-4-11, purchased from American Type Culture Collection, Catalog Number: CRL-9591; • Human acute myeloid leukemia cells MOLM-13, purchased from COBIOER BIOSCIENCES CO., LTD, Catalog Number: CBP60678; • Human acute myeloid leukemia cells KG-1a, purchased from American Type Culture Collection, Catalog Number: CCL-246.1; • Inverted Microscope, purchased from Olympus Tokyo; • Countess™ Automated Cell Counter, purchased from Invitrogen, Model: C10281; and • Multilabel Reader, purchased from Bio-Tek, Model: Synergy HT.
MV-4-11 cells were cultured in an IMDM medium containing 10% fetal bovine serum, KG-a cells were cultured in an IMDM medium containing 20% fetal bovine serum, or MOLM-13 cells were cultured in an RPMI-1640 medium containing 20% fetal bovine serum, each supplemented with 100 U·mL^-1 penicillin and 100 µg·mL^-1 streptomycin. These cells were cultured at 37°C with 5% CO2. The suspensions of individual cell lines were prepared in their respective media and seeded into 96-well plates at a density of 4,000 cells/well for MV-4-11 and MOLM-13 cells, or 3,000 cells/well for KG-1a cells. On the day of the experiment, a compound stock solution was diluted in a 3-fold or 4-fold gradient using DMSO. Each gradient-diluted stock solution was then further diluted 250-fold with a complete medium to prepare a series of working solutions at different concentrations. Subsequently, 100 µL of working solution (containing a 2-fold concentration series of the test compound) was added to each well, with duplicate wells set up for each concentration.
Seven days after compound addition (on Day 7), an Alamar Blue assay reagent (MCE, HY-111391 / CS-0040317) was added to measure the fluorescence intensity in each well. Wells containing the cells in the growth medium supplemented with 0.1% DMSO (Day 7) served as high-read control wells. The readouts from the wells containing the cells in the growth medium supplemented with 0.1% DMSO on the day of compound addition (Day 0) served as low-reading control well. GraphPad Prism software was used to calculate the concentration required to inhibit 50% of cell proliferation (GI50), which serves as a cell proliferation inhibition activity index.
In general terms: Alamar Blue is a resazurin reagent that responds to reducing activity.

The subject of assay [2] is MOLM-13 (carrying MLL-AF9). Nature of the assay: Inhibition of proliferation of human tumor cells (Alamar Blue, 7 days), MOLM-13. Conditions: MOLM-13 cells (carrying MLL-AF9), method calls the value GI50. It counts as cell-based. The procedure, abridged:
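Cells seeded at 4,000/well (MV-4-11, MOLM-13) or 3,000/well (KG-1a) in serum-supplemented IMDM or RPMI-1640, 37°C, 5% CO2, then exposed to 3- or 4-fold compound dilutions in duplicate for 7 days. Alamar Blue fluorescence read; GI50 derived against Day 7 0.1% DMSO (high) and Day 0 (low) controls.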

The target in assay [3] is T1, Menin-MLL (Homo sapiens, UniProt O00255).
T1 construct: His-Menin (M1-L615 end); purchased BIORTUS BP9210
T1 sequence (O00255 1-615 isoform O00255-1): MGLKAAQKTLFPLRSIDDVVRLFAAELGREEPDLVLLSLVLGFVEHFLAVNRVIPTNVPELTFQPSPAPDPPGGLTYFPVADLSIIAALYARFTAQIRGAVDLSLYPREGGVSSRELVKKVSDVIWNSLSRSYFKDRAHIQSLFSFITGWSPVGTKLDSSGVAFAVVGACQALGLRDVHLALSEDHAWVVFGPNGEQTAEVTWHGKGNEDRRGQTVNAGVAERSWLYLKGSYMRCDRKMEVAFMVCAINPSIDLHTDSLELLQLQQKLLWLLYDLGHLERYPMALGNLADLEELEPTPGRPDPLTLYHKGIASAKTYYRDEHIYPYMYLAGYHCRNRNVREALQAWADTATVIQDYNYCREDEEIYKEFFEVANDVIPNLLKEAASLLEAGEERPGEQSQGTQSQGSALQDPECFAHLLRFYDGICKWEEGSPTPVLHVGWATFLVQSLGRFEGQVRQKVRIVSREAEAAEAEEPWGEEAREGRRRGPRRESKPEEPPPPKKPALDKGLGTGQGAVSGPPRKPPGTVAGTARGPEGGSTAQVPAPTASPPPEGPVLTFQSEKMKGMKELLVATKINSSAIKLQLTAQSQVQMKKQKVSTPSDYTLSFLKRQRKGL
Nature of the assay: Inhibitory activity against Menin-MLL binding (fluorescence polarization). As to conditions: fluorescence polarization; 150 nM His-Menin, 15 nM FITC-MLL; 25°C for 60 min; read-out: Menin-MLL IC50. The procedure, abridged:
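His-Menin (M1-L615, 150 nM) preincubated with compound 15 min at 25 °C in HEPES pH 7.5, 50 mM NaCl, 1 mM DTT, 0.01% BSA, then 15 nM FITC-MLL4-43 peptide added for 60 min at 25 °C. Fluorescence polarization read; IC50 from 4-parameter logistic fit, duplicates.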
On the technique in general: Fluorescence polarisation rises when a labelled molecule tumbles more slowly, as on binding a larger partner.

As for `Cc1nc(F)c2c(-c3ccc(F)cc3C(=O)N3[C@H](C)COC[C@H]3C)cc(C3CN(CC4CCN(C(=O)C5(O)CC5)CC4)C3)cn12` [Example 214], the IC50 (as a rule, the point on the concentration scale where inhibition reaches its midpoint) is 0.0075 µM in assay [1] (Homo sapiens, MV4-11, 168 h); 0.012 µM in assay [2] (Homo sapiens, 168 h); 0.005 µM in assay [3].
The corresponding values for `CCS(=O)(=O)N[C@@H]1CC[C@@H](CN2CC(c3cc(-c4ccc(F)cc4C(=O)N(CC(F)F)C(C)C)c4c(F)nc(C)n4c3)C2)OC1` [Example 151] are 0.04 µM, 0.061 µM and 0.0155 µM.
For the compound `CCN(C(=O)c1cc(F)ccc1-c1cc(C2CN(C(C)C3CCN(C(C)=O)CC3)C2)cn2c(C)nc(F)c12)C(C)C` (stereo not drawn) [Example 288], the IC50 in assay [1] (Homo sapiens, MV4-11, 168 h) turned out to be 0.015 µM; in assay [2] (Homo sapiens, 168 h), 0.055 µM; in assay [3], 0.006 µM.
With `CCN(C(=O)c1cc(F)ccc1-c1cc([C@H]2CCN(C[C@]3(O)CC[C@H](NS(=O)(=O)CC)CC3)C2)cc2c1cnn2C)C(C)C` [Compound 55-1-1, N-ethyl-5-fluoro-2-[1-methyl-6-[(3R)-1-{[(1r,4s)-4-ethanesulfonamido-1-hydroxylcyclohexyl]methyl}pyrrolidin-3-yl]-1H-indazol-4-yl]-N-(isopropyl)benzamide], the IC50 is 0.0185 µM in assay [1], 0.044 µM in assay [2] and 0.014 µM in assay [3].
As for `Cc1nc(F)c2c(-c3ccc(F)cc3C(=O)N3[C@H](C)COC[C@H]3C)cc(C3CN([C@@H](C)C4CCOCC4)C3)cn12` [Example 209-2, (3R,5R)-4-[5-fluoro-2-(1-fluoro-3-methyl-6-{1-[(1S)-1-(oxacyclohexan-4-yl)ethyl]azacyclobutan-3-yl}imidazo[1,5-a]pyridin-8-yl)benzoyl]-3,5-dimethylmorpholine], the IC50 in assay [1] (Homo sapiens, MV4-11, 168 h) came to 0.002 µM; in assay [2] (Homo sapiens, 168 h), 0.005 µM; in assay [3], 0.0045 µM.
For `Cc1nc(F)c2c(-c3ccc(F)cc3C(=O)N3CCOC[C@H]3C)cc(C3CN([C@@H](C)C4CCN(C(=O)C5(O)CC5)CC4)C3)cn12` [Example 278], in that order: 0.0083 µM, 0.024 µM and 0.011 µM.
The corresponding values for `Cc1nc(F)c2c(-c3ccc(F)cc3C(=O)N3[C@H](C)COC[C@H]3C)cc(C3CN(CC4CCN(C(=O)C(F)F)CC4)C3)cn12` [Example 219] are 0.012 µM, 0.014 µM and 0.012 µM.
On to `CO[C@@H]1CN(CCC[C@H](C(C)C)N2CC(c3cc(-c4ccc(F)cc4C(=O)N4CCOC[C@H]4C)c4c(F)nc(C)n4c3)C2)C[C@H]1O` (relative stereo) [Example 291, (3r,4r)-1-[(4R)-4-[3-(1-fluoro-8-{4-fluoro-2-[(3R)-3-methylmorpholin-4-carbonyl]phenyl}-3-methylimidazo[1,5-a]pyridin-6-yl)azacyclobutan-1-yl]-5-methylhexyl]-4-methoxypyrrolidin-3-ol], for which the IC50 came to 0.0016 µM in assay [1] (Homo sapiens, MV4-11, 168 h); 0.007 µM in assay [2] (Homo sapiens, 168 h); 0.003 µM in assay [3].
The corresponding values for `CC(=O)N1CCC(CN2CC(c3cc(-c4ccc(F)cc4C(=O)N4CCOC[C@H]4C)c4c(F)nc(C)n4c3)C2)CC1` [Example 225] are 0.025 µM, 0.06 µM and 0.028 µM.
In the case of `CNCCCC(C(C)C)N1CC(c2cc(-c3ccc(F)cc3C(=O)N(CC(F)F)C(C)C)c3cnc(C)n3c2)C1` (stereo not drawn) [Example 148], the IC50 in assay [1] (Homo sapiens, MV4-11, 168 h) was 0.00095 µM; in assay [2] (Homo sapiens, 168 h) it was 0.0036 µM; in assay [3], 0.009 µM.
The corresponding values for `Cc1nc(F)c2c(-c3ccc(F)cc3C(=O)N3[C@H](C)COC[C@H]3C)cc(C3CN(CC4CCN(C(=O)C5CC5)CC4)C3)cn12` [Example 215] are 0.0067 µM, 0.013 µM and 0.011 µM.
`CCN(C(=O)c1cc(F)ccc1-c1cc(C2CN([C@H](CCCN(C)CCOC)C(C)C)C2)cn2c(C)nc(F)c12)C(C)C` [Example 307-2, N-ethyl-5-fluoro-2-(1-fluoro-6-{1-[(3R)-6-[(2-methoxyethyl)(methyl)amino]-2-methylhexan-3-yl]azacyclobutan-3-yl}-3-methylimidazo[1,5-a]pyridin-8-yl)-N-(isopropyl)benzamide]: the IC50 amounted to 0.00069 µM in assay [1] (Homo sapiens, MV4-11, 168 h); 0.0037 µM in assay [2] (Homo sapiens, 168 h); 0.006 µM in assay [3].
For `CCC(=O)N1CCC([C@H](C)N2CC(c3cc(-c4ccc(F)cc4C(=O)N4CCOC[C@H]4C)c4c(F)nc(C)n4c3)C2)CC1` [Example 295], in that order: 0.019 µM, 0.047 µM and 0.005 µM.
The corresponding values for `Cc1nc(F)c2c(-c3ccc(F)cc3C(=O)N3CCOC[C@H]3C)cc(C3CN(C(CC[C@H]4CNCCO4)C(C)C)C3)cn12` (stereo partly drawn) [Example 244, (3R)-4-{5-fluoro-2-[1-fluoro-3-methyl-6-(1-{4-methyl-1-[(2S)-morpholin-2-yl]pentan-3-yl}azacyclobutan-3-yl)imidazo[1,5-a]pyridin-8yl]benzoyl}-3-methylmorpholine] are 0.013 µM, 0.064 µM and 0.017 µM.
For `CO[C@H]1CCN(CCC[C@H](C(C)C)N2CC(c3cc(-c4ccc(F)cc4C(=O)N4CCOC[C@H]4C)c4cnn(C)c4c3)C2)C1` [Example 184-2], in that order: 0.0063 µM, 0.034 µM and 0.013 µM.
Consider `Cc1nc(F)c2c(-c3ccc(F)cc3C(=O)N3CCOC[C@H]3C)cc(C3CN(CC4CCN(C(=O)N5CC(F)(F)C5)CC4)C3)cn12` [Example 258], for which the IC50 in assay [1] (Homo sapiens, MV4-11, 168 h) was determined as 0.036 µM; in assay [2] (Homo sapiens, 168 h), 0.049 µM; in assay [3], 0.05 µM.
Turning to `Cc1nc(F)c2c(-c3ccc(F)cc3C(=O)N3CCOC[C@H]3C)cc(C3CN(CC4CCN(C(=O)C5CC5)CC4)C3)cn12` [Example 269], the IC50 in assay [1] (Homo sapiens, MV4-11, 168 h) came to 0.037 µM; in assay [2] (Homo sapiens, 168 h) it was 0.083 µM; in assay [3], 0.0335 µM.
`CCNC(=O)N1CCC(C(C)N2CC(c3cc(-c4ccc(F)cc4C(=O)N(CC)C(C)C)c4c(F)nc(C)n4c3)C2)CC1` (stereo not drawn) [Example 282, N-ethyl-4-{1-[3-(8-{2-[ethyl(isopropyl)aminoformyl]-4-fluorophenyl}-1-fluoro-3-methylimidazo[1,5-a]pyridin-6-yl)azacyclobutan-1-yl]ethyl}piperidin-1-formamide]: the IC50 in assay [1] (Homo sapiens, MV4-11, 168 h) turned out to be 0.0054 µM; in assay [2] (Homo sapiens, 168 h), 0.025 µM; in assay [3], 0.004 µM.
For `CCNC(=O)N1CCC(CN2CC(c3cc(-c4ccc(F)cc4C(=O)N(CC)C(C)C)c4cnc(C)n4c3)C2)CC1` [Example 290], in that order: 0.0052 µM, 0.024 µM and 0.004 µM.
For `Cc1nc(F)c2c(-c3ccc(F)cc3C(=O)N3[C@H](C)COC[C@H]3C)cc(C3CN(CC4CCN(C(=O)N5CC(F)(F)C5)CC4)C3)cn12` [Example 242], in that order: 0.0059 µM, 0.028 µM and 0.0095 µM.
